From a melting point compilation (Tetko et al.; mined from patent text by program, amines drawn as free bases though some values may be those of a salt) come the findings set out here.

As for `CC(C)OC(=O)C(C)Oc1ncn(-c2ccc(Cl)cc2Cl)n1` (stereo not given), the melting point lay within 55 to 57 °C. To `COC(=O)C1=C(C)NC(c2c(F)cc(F)cc2F)=NC1c1ccc(F)cc1Cl` (stereo not given) belongs 112 to 114 °C; to `COc1ccc2c(c1)c1c3c(c(-c4ccccc4Cl)cc1n2CCC#N)C(=O)NC3=O`, 287 to 288 °C. To `Cc1cc(SC(C)C)c(NC(=O)CCCCCCSc2nc3cccc(C(F)(F)F)c3o2)c(SC(C)C)n1` belongs 76 to 78 °C; to `CCP(=O)(CC)C(O)[C@H](CC1CCCCC1)NC(=O)[C@H](CC(C)C)NC(=O)[C@H](Cc1ccccc1)NC(=O)C1CCCC1` (stereo not given in full), 170 to 171 °C; to `Cc1ccc(C2(Cn3cncn3)OCCO2)cc1Br`, 121 °C. `CCCCCCC(=N)NC(=S)Nc1ccc(SC)cc1`: the melting point was 100 to 101 °C. To `CC(NC(=O)c1cccnc1)c1ccccc1` (stereo not given) belongs 88 to 89 °C; to `COCc1ncnc(O)c1C`, 139 to 140 °C. To `CC1(C)C(=O)N([Si](C)(C)C)C(=O)N1[Si](C)(C)C` belongs 46 to 49 °C; to `N#Cc1ccc2c(c1)C(c1ncnc3nn(C4CCCCC4)cc13)C(=O)N2` (stereo not given), more than 325 °C.

Consider `COc1cc(C2C3=C(COC3=O)Nc3ccc4cc(C)[nH]c4c32)cc(OC)c1OC` (stereo not given), for which the melting point was 280 to 281 °C. Consider `COc1cccc(C(=O)NN=C2CCc3ccccc3C2)c1C`, for which the melting point was 138 °C. To `OCCCc1nc2cccnc2[nH]1` belongs 151 to 153 °C; to `O=C(O)CCc1conc1-c1ccc(F)c(Cl)c1`, 140 to 141 °C; to `CCOC(=O)c1cnc2ccc(C3CCCCCC3)cc2c1Cl`, 61 to 62 °C. To `CC(C)(C)OC(=O)CCCCCOc1ccc2sc(-c3ccccn3)nc(=O)c2c1` belongs 101 to 102 °C; to `O=[N+]([O-])c1cccc2c1CN(Cc1ccccc1)C2`, 77.5 to 78 °C. The molecule `CC(=O)NC[C@H]1CN(c2ccc(N3CCC(Cc4nnc(-c5ccccc5)o4)CC3)c(F)c2)C(=O)O1` displayed a melting point of 199 to 200 °C. In turn, `CS(=O)(=O)c1ccc(-c2c(-c3ccccc3)[nH]c3ccccc23)cc1` showed a melting point of 239 to 241 °C. As to `Cn1cc(C2=C(c3c4n(c5ccccc35)C[C@@H]3CN(C=O)C[C@@H]3C4)C(=O)NC2=O)c2ccccc21` (relative stereo), the melting point fell in the range of 316 to 318 °C. For `CCc1cccc(-c2nc3ccccc3[nH]2)n1`, the melting point is 161 to 162 °C.

Take `C=CC(C)c1cc(C)c2c(c1O)C(N(C)C=O)C1CCCCC21` (stereo not given): the melting point is 158 to 159 °C. `CSc1nnc(SC)c2cc(-c3ccccc3)ncc12` yielded a melting point of 155 °C. As to `CCC1(CCCCN2CCN(c3ccc(Cl)cc3)CC2)C(=O)Nc2ccc(F)cc21` (stereo not given), the melting point was 148 to 150 °C. Next, `COc1ccc(-n2nc(C(F)F)cc2-c2ccc(S(C)(=O)=O)cc2)cc1F`: 185 to 186 °C; `CCn1cc(C2CCC3(CC2)OCCO3)c2cc(C#N)ccc21`: 124 to 126 °C.

Molecule `COC(=O)CCn1c(C(=O)O)cc2ccccc21` yielded a melting point of 118 to 120 °C. In turn, `C=CCc1c(O)ccc2c1CCCC2=O` showed a melting point of 145 to 148 °C.

`CCOC1CC(n2cc(C(F)(F)F)c(=O)[nH]c2=O)OC1CO` (stereo not given) yielded a melting point of 183 to 184 °C. Next, `CC(C(=O)O)c1ccc(C(=O)c2ccco2)cc1` (stereo not given): 86 to 88 °C; `N#CC1=C(C2CCCN2)Nc2n[nH]cc2C1c1cccc(C#N)c1Br` (stereo not given): more than 240 °C; `O=C(CN1CCC(Cc2ccccc2)CC1)Nc1ccc2[nH]ncc2c1`: 170 to 174 °C. In turn, `Fc1ccc(CNc2nc(OCC(F)(F)F)nc(-c3ccccc3)n2)cc1` came in with a melting point of 170 to 172 °C. To `Cn1cc(C(=O)c2sc(NC(=O)c3ccncc3)nc2-c2ccco2)ccc1=O` belongs 294 to 295 °C; to `CN(C)C(=O)COc1ccc2ccc(N)nc2n1`, 182 °C. `Oc1ccccc1-c1nc2sc(-c3ccccc3O)nc2s1` registered a melting point of 300 °C. To `COc1cc2ncc(C#N)c(Cl)c2cc1OC` belongs 220 to 223 °C; to `CCCc1nn(C)c2c1N=C(c1cc(C(=O)O)ccc1OCC)NC2`, 285 to 288 °C.

Turning to `O=C(O)c1ccc(OCCCO/N=C/c2ccc(C(F)(F)F)cc2)cc1NC(=O)c1ccccc1C(F)(F)F`, the melting point was 147 to 148 °C.

In turn, `COC(=O)[C@@H]1CCN1S(=O)(=O)c1ccc(Cl)c(COc2cccc3c(-n4ccnc4)cc(C)nc23)c1Cl` had a melting point of 80 °C. As for `O=C(O)C1=Cc2cc(Cl)ccc2N(Cc2ccc([N+](=O)[O-])cc2)C1C(F)(F)F` (stereo not given), the melting point lay within 225 to 228 °C.

Consider `C#CC(C)NCC(O)COc1ccccc1C=Cc1nnc(C)s1` (stereo not given), for which the melting point is 143 to 145 °C.

`O=C(O)C1=CC(CF)(CF)Oc2ccc(Cl)cc21` yielded a melting point of 151 to 152 °C. To `O=C(O)CCCCCCCCCCCCCCCOCc1ccccc1` belongs 56 to 59 °C.

The molecule `CN(C)CCOc1ccc(/C(=C(\c2ccccc2)C(F)(F)F)c2ccccc2)cc1` came in with a melting point of 90 to 91 °C. Next, `CN(C)CC(=O)N1CCN(Cc2ccc3c(c2)Cc2c(-c4cccs4)n[nH]c2-3)CC1`: 193 to 197 °C.

In the case of `CCC(=O)N1CCC(NC(=O)Nc2ccc(C(=O)O)cc2)CC1`, the melting point was in the range of 201 to 204 °C. To `O=C(O)[C@H]1CN(C(=O)OCc2ccccc2)CCN1c1cc(Cl)ccc1[N+](=O)[O-]` belongs 145 to 155 °C; to `CC(=O)NCC(=O)NCC1(SCc2ccccc2)C2CC3CC(C2)CC1C3` (stereo not given), 132 to 134 °C; to `COC(=O)c1ccccc1C=CC(=O)N1CCc2c([nH]c3ccccc23)C1c1ccc2c(c1)OCO2` (stereo not given), 203 to 204 °C. Molecule `O=C1c2ccccc2C(=O)N1CCCCCCSc1ccc2ccccc2c1` had a melting point of 109 to 110 °C. To `Nc1cccc2cc(-c3ccccn3)[nH]c12` belongs 165 to 166 °C; to `Cc1cc(OCc2coc(/C=C/c3ccc(C(F)(F)F)cc3)n2)ccc1CS(=O)CCc1ccnn1C` (stereo not given), 161 to 162 °C; to `N#Cc1ccc(Oc2ccc(C3CCCN4CCS(=O)(=O)N=C34)cc2)cc1Cl` (stereo not given), 219 to 220 °C. Next, `Cc1cc(C)c2c(=O)cc(C(=O)O)[nH]c2c1`: 285 to 287 °C. Next, `[N-]=[N+]=C1C(=O)Oc2cc(OCc3ccccc3)ccc2C1=O`: 191 °C. As to `C[C@@H](NC(=O)c1csc(-c2ccccc2)n1)[C@](O)(Cn1cncn1)c1ccc(F)cc1F`, the melting point lay in the range of 174 to 175 °C. Next, `O=C(CC(Cc1ccccc1)(C(=O)O)C(=O)O)c1cccc(C(F)(F)F)c1`: 145 to 147 °C; `CC1(C)Oc2ccc(C#N)cc2[C@@H](NC(=O)c2ccc(C(F)(F)F)cc2)[C@@H]1O` (relative stereo): 225 °C; `O=[N+]([O-])c1ccc(O)c(C(F)(F)F)c1`: 103 to 104 °C.

In the case of `Cc1cc(COc2ccc3nc(NC(=O)NCCN4CCOCC4)sc3c2)n(C)n1`, the melting point was 160 °C. To `CN(C)c1cccc2nc3cccc(C(=O)O)c3nc12` belongs 186 to 188 °C; to `CC(C)(C)OC(=O)NC1C2CN(CC(O)(c3ccccc3)c3ccccc3)CC21` (stereo not given), 127 to 131 °C. `O=C(O)CCc1oc(SC2CCCCC2)nc1-c1ccc(Cl)cc1` gave a melting point of 136 to 137 °C. Next, `Nc1nccc2cc(O)ccc12`: 258 to 260 °C; `COc1ccc2c(c1)OCC(=Cc1cccnc1)C2=O`: 126 to 128 °C.

As to `CC1(C)CC(=O)C(C(=O)Nc2ccc(Cl)c(C(F)(F)F)c2)C(=O)O1` (stereo not given), the melting point was found to be 156 °C. Consider `COc1cccc(-c2ccc3c(c2)C(C)(C)C(=O)N3)c1`, for which the melting point fell in the range of 157 to 158 °C.

As to `COc1cccc(OC)c1C(=O)Nc1ccc(OCCN2CCCCC2)cc1`, the melting point was 114 to 118 °C. Next, `Cc1ccc(N=C(Nc2ccc(C)cc2)ON2C(C)(C)CC(O)CC2(C)C)cc1`: 124 to 126 °C.

`COP(=O)(O)CC(C)=CC(N)C(=O)O` (stereo not given) had a melting point of 149 to 150 °C. The molecule `COc1ccccc1N1CCN(CCN(C(=O)C2CCCCC2)c2ccccc2OCC(F)(F)F)CC1` came in with a melting point of 110 to 112 °C. Molecule `COc1cc(C(=O)NS(=O)(=O)c2ccccc2Cl)ccc1Cc1c(Cl)n(C)c2ccc(CC(C)NC(=O)N(C)C)cc12` (stereo not given) gave a melting point of 126 to 136 °C. In the case of `C=CCCC(O)C(C)(C)N1COC(C)=C(c2ccccc2)C1=O` (stereo not given), the melting point is 74 to 75 °C. `COCc1nc(C=NNC(=S)SC)c[nH]1` registered a melting point of 150 to 154 °C. `CC(=O)Nc1ccc(-c2ccc3nc(-c4cccnc4N)n(-c4ccc(CN)cc4)c3n2)cc1` returned a melting point of 245 to 248 °C.

`CN(C)CCCn1c(-c2ccc(Br)cc2)cc2c1CCSC2` had a melting point of 88 to 90 °C. Next, `CC(=O)Nc1nc(CCc2ccc(NC(=N)N)cc2)c(C(=O)N2CCN(C(C)=O)CC2)s1`: 206 to 208 °C; `CC1(C)CCc2c(N3CCOCC3)nc3sc4c(NCc5ccc(S(N)(=O)=O)cc5)ncnc4c3c2C1`: 258 to 260 °C; `COc1ccc(C2CCN(C(=O)C(N)=O)CC2)cc1CC1CCCC1`: 117 to 118 °C.

Consider `Cn1c(S(=O)(=O)CCO)nnc1S(=O)(=O)CCO`, for which the melting point was 176 to 177 °C.

`Cn1cc2c3c(cccc31)C(=O)NCC2` displayed a melting point of 194 to 195 °C.

As for `COC(=O)c1c(C)sc(C)c1N`, the melting point was in the range of 75 to 77 °C. To `Cc1nc(C)c(Cl)c(NCc2ccc(Oc3ccc4ncc([N+](=O)[O-])n4n3)c(OCC3CC3)c2)n1` belongs 178 to 180 °C; to `Cn1c(CC(=O)O)c(-c2ccccc2)c2cc(Cl)ccc21`, 141 to 142 °C. `ClCCCOc1ccc(-c2ccccc2)cc1` came in with a melting point of 65 to 66 °C. For the molecule `Oc1ccc(CCCCCCc2ccc(O)cc2)cc1`, the melting point is 143 to 144 °C.

As for `O=C(O)c1cn(-c2ccc(F)cc2)c2cc(F)c(F)cc2c1=O`, the melting point lay within 252 to 256 °C. On to `Cc1cc(Cn2nnn(-c3cc(C(F)(F)F)cc(C(F)(F)F)c3)c2=O)ccc1N`, for which the melting point lay within 129 to 130 °C.

As a reminder, the melting point is the temperature, or range, at which the solid turns liquid.
